pEC50: −log10 of the molar value.
Key:
[1] = target: T1, MBL (Homo sapiens, UniProt P11226); assay: iC3b (C3) deposition cell surface ELISA on hypoxic/reoxygenated HUVECs; assay type: cell-based; details: for attenuation of iC3b deposition: HUVECs 24 hr hypoxia, 3 hr reoxygenation; for iC3b deposition compared with normoxic HUVECs (FIG. 4a): 30 mmol/L in 30% human serum; for inhibition of iC3b deposition on hypoxic/reoxygenated HUVECs (in words): sugar at 3-300 mmol/L in 30% HS
T1 construct: 3 hr of reoxygenation in the presence of 30% human serum (HS); from tissue; host or cells: human serum (30% HS on HUVECs; 2% human sera on mannan-coated plates)
T1 sequence (P11226 21-248): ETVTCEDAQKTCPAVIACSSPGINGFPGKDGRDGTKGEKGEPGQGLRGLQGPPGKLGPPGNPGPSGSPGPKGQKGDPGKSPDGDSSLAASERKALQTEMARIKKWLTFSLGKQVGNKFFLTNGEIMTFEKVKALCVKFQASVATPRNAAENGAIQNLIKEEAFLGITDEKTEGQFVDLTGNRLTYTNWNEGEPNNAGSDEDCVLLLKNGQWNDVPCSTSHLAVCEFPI
Experimental: Enzyme-Linked Immunoabsorbent Assay (ELISA) Experiments. […] HUVECs were grown to confluence on 0.1% gelatinized 96-well plastic plates (Corning Costar, Cambridge, Mass.). The plates were then subjected to 0 (normoxia) or 24 hr of hypoxia. Hypoxic stress was maintained using a humidified sealed chamber (Coy Laboratory Products, Inc., Grass Lake, Mich.) at 37° C. gassed with 1% O2, 5% CO2, balance N2 (Collard C D, et al., “Reoxygenation of hypoxic human umbilical vein endothelial cells activates the classical complement pathway”, Circulation 1997;96:326-333). Following the specified period of normoxia or hypoxia, the cell media were aspirated and 100 μl of one of the following was added to each well: 1) 30% HS, 2) Hank's balanced salt solution, 3) 30% HS+3, 30, or 300 mmol/L GluNAc, 4) 30% HS+3, 30, or 300 mmol/L D-mannose, 5) 30% HS+3, 30, 300 mmol/L L-mannose, 6) 30% MBL-depleted HS+3F8 (0, 20, 50 μg/ml)or 7) 30% MBL-depleted HS +0.6 μg/ml MBL. Additionally, 100 μl of purified MBL (3-300 ng/ml) was added to select wells to form a standard curve for quantitative analysis of MBL deposition. The cells were then reoxygenated for 3 hr at 37° C. in 95% air and 5% CO2. The cells were washed and then fixed with 1% paraformaldehyde (Sigma Chemical Co., St. Louis, Mo.) for 30 min. The cells were then washed and incubated at 4° C. for 1.5 hr with 50 μl of peroxidase-conjugated polyclonal goat anti-human C3 antibody (1:1000 dilution) or monoclonal anti-human MBL antibody (1:1000 dilution). The MBL ELISA plates were then washed and incubated for 1 hr at 4° C. with 50 μl of peroxidase-conjugated polyclonal goat anti-mouse IgG secondary antibody (1:1000 dilution). After washing the cells, the plates were developed with […] of ABTS (2,2′-azino-bis(3-ethylbenzthiazoline-6-sulfonic acid)), and read (Molecular Devices, Sunnyvale, Calif.) at 405 nm. Background controls for the C3 ELISA consisted of cells to which only the anti-human C3 antibody was added (i.e., no […]) or cells incubated with 30% heat-inactivated HS. Background controls for the MBL ELISA consisted of cells to which only secondary antibody and an isotype control monoclonal antibody to porcine C5a were added. Background optical density was subtracted from all groups. All ELISA experiments were performed 3 times using 6 wells per experimental group. Endothelial C3 and MBL deposition on normoxic vs. hypoxic […] was analyzed by two-way analysis of variance (ANOVA).
HUVEC cell culture and quantitation of iC3b deposition by ELISA were performed as outlined in Example 2.
Results. HUVECs were subjected to 0 or 24 hr of hypoxia followed by 3 hr of reoxygenation in the presence of 30% HS or 30% HS treated with 3, 30, or 300 mmol/L GluNAc, D-mannose or L-mannose in order to inhibit MBL deposition, LCP activation and iC3b deposition.
HUBECs were hypoxic for 24 hours and then reoxygenated in 30% human sera. iC3b deposition was then normalized to normoxic cells.

[2] = target: T1, MBL; assay: MBL deposition cell surface ELISA on hypoxic/reoxygenated HUVECs; assay type: cell-based; details: for attenuation of MBL deposition: HUVECs 24 hr hypoxia, 3 hr reoxygenation
Experimental: C3 and MBL specific cell surface ELISAs can be performed using peroxidase-conjugated polyclonal goat anti-human C3 antibody (Cappel, West Chester, Pa.) and monoclonal anti-human MBL antibody (Biodesign, Kennebunk, Me., clone #131-1), respectively. HUVECs are grown to confluence on 0.1% gelatinized 96-well plastic plates (Corning Costar, Cambridge, Mass.). The plates are then subjected to 0 (normoxia) or 24 hr of hypoxia. Hypoxic stress is maintained using a humidified sealed chamber (Coy Laboratory Products, Inc., Grass Lake, Mich.) at 37° C. gassed with 1% O2, 5% CO2, balance N2 (Collard C D, et al., “Reoxygenation of hypoxic human umbilical vein endothelial cells activates the classical complement pathway”, Circulation, 1997;96:326-333). Following the specified period of normoxia or hypoxia, the cell media are aspirated and 100 μl of one the following is added to each well: 1) 30% HS, 2) Hank's balanced salt solution, 3) 30% HS +3, 30, or 300 mmol/L GluNAc, 4) 30% HS+3, 30, or 300 mmol/L D-mannose, 5) 30% HS+3, 30, 300 mmol/L L-mannose, 6) 30% MBL-depleted HS 7) 30% MBL-depleted HS+0.6 μg/ml MBL or 8) 30% HS+3, 30, or 300 mmol/L putative MBL binding peptide. Additionally, 100 μl of purified MBL (3-300 ng/ml) is added to select wells to form a standard curve for quantitative analysis of MBL deposition. The cells are then reoxygenated for 3 hr at 37° C. in 95% air and 5% CO2. The cells are washed and then fixed with 1% paraformaldehyde (Sigma Chemical Co., St. Louis, Mo.) for 30 min. The cells are then washed and incubated at 4° C. for 1.5 hr with 50 μl of peroxidase-conjugated polyclonal goat anti-human C3 antibody (1:1000 dilution) or monoclonal anti-human MBL antibody (1:1000 dilution). The MBL ELISA plates are then washed and incubated for 1 hr at 4° C. with 50 μl of peroxidase-conjugated polyclonal goat anti-mouse IgG secondary antibody (1:1000 dilution). After washing the cells, the plates are developed with 50 μl of ABTS (2,2′-azino-bis(3-ethylbenzthiazoline-6-sulfonic acid)), and read (Molecular Devices, Sunnyvale, Calif.) at 405 nm. Background controls for the C3 ELISA consist of cells to which only the anti-human C3 antibody is added (i.e., no HS) or cells incubated with 30% heat-inactivated HS. Background controls for the MBL ELISA consist of cells to which only secondary antibody and an isotype control monoclonal antibody to porcine C5a are added. Background optical density is subtracted from all groups. ELISA experiments are generally performed 3 times using 6 wells per experimental group. Endothelial C3 and MBL deposition on normoxic vs. hypoxic HUVECs is analyzed by two-way analysis of variance (ANOVA).
Enzyme-Linked Immunoabsorbent Assay (ELISA) Experiments. […]

[3] = target: T1, MBL; assay: Functional screen: C3 deposition on mannan-coated plates in 2% human sera; assay type: biochemical
Experimental: Methods. The functional screen for inhibition of MBL function by anti-human MBL antibodies was adapted from the literature{Super, Levinsky, et al., The level of mannan-binding protein regulates the binding of complement-derived opsonins to mannanand zymosan at low serum concentrations, Clin. Exp. Immunol. 1990; 79:144-150}. Briefly, 100 μl of mcannan (0.5 mg/ml in sodium carbonate/bicarbonate buffer, pH 9.6) was added to RIA/EIA plates at 4C overnight. The plates were then washed 3 times in PBS/0.5% Tween pH 7.3, once in PBS and finally in veronal-buffered saline. Human serum is diluted to 4% in VBS containing 5 mM Ca^2+ and Mg^2+. Diluted sera and tissue culture supernatant or purified antibody (various concentrations) are then 1:1 to a mannan-coated well to yield a final volume or 100 μl at a concentration of 2% human sera. The plate is then incubated at 37C for 30 min. Positive and negative controls consist of human sera without and with 100 mM N-acetlglucosamine (GluNac). The plates are then washed four times in PBS/Tween. The plates are then incubated with an anti-human C3 polyclonal antibody coupled with HRP (1 hours at RT), washed and developed with ABTS and read at 405 nm.

[4] = tested on: HUVECs; assay: Microphysiometry of HUVEC extracellular acidification rate (EAR); assay type: cell-based, human; details: normoxic or hypoxic/reoxygenated HUVECs; MBL 300-1500 ng/ml, 40 min perfusion; histamine 1 μmol/L
Experimental: Microphysiometry. Changes in HUVEC extracellular acidification rate (EAR) were evaluated by use of a Cytosensor microphysiometer (Molecular Devices, Sunnyvale, Calif.). HUVECs were grown to 75% confluence on gelatin-coated (1%) transwell capsules and subjected to 24 hr of hypoxia followed by 3 hr of reoxygenation. Following 30 min of equilibration in modified RPMI containing 1 mmol/L phosphate buffer (Molecular Devices, Sunnyvale, Calif.), the EARs were determined (Gronert K, et al., “Characterization of human neutrophil and endothelial cell ligand-operated extacellular acidification rate by microphysiometry: Impact of reoxygenation”, J. Pharmacol.Exp.Ther. 1998;285:252-261). HUVECs were perfused with 300-1500 ng/ml of purified MBL (dialyzed in the modified RPMI) for 30 sec before the first rate measurement and perfusion was maintained for 40 min. As a positive control, the HUVECs were perfused with media alone for 15 min following MBL exposure and then stimulated with histamine (1 μmol/L, 15 min perfusion) to evoke extracellular acidification. Each concentration of MBL was analyzed in two independent chambers containing normoxic or hypoxic/reoxygenated HUVECs. The HUVEC response to each MBL concentration was evaluated in 3 separate experiments (n=3).

## O=C[C@@H](O)[C@@H](O)[C@H](O)[C@H](O)CO [D-mannose]
[1]; 3 mmol/L in 30% HS
  attenuation of iC3b deposition: 19±2%
[1]; 30 mmol/L in 30% HS
  attenuation of iC3b deposition: 52±3%
[1]
  iC3b deposition compared with normoxic HUVECs (FIG. 4a): did not significantly differ from normoxic controls
  inhibition of iC3b deposition on hypoxic/reoxygenated HUVECs (in words): significantly attenuated
[1]; 300 mmol/L in 30% HS
  attenuation of iC3b deposition: 96±2%

## O=C[C@H](O)[C@H](O)[C@@H](O)[C@@H](O)CO [L-mannose]
[1]
  iC3b deposition compared with normoxic HUVECs (FIG. 4a): significantly greater than normoxic HUVECs
  inhibition of iC3b deposition on hypoxic/reoxygenated HUVECs (in words): did not inhibit iC3b deposition
[1]; hypoxic HUVECs reoxygenated in 30% HS treated with the sugar, normoxic 0.05±0.01
  iC3b deposition, OD405: 0.14±0.01

## CC(=O)N[C@H]1C(O)O[C@H](CO)[C@@H](O)[C@@H]1O (stereo partly drawn) [GluNAc, N-acetyl-D-glucosamine]
[2]; 3 mmol/L in 30% HS
  attenuation of MBL deposition: 40±4%
[2]; 30 mmol/L in 30% HS
  attenuation of MBL deposition: 71±5%
[2]; 300 mmol/L in 30% HS
  attenuation of MBL deposition: 96±3%
[2]; 3, 30, 300 mmol/L added to 30% HS, dose-dependent
  MBL deposition on hypoxic/reoxygenated HUVECs (in words): significantly inhibited MBL deposition
[3]
  pEC50: ~9.00
[1]
  iC3b deposition compared with normoxic HUVECs (FIG. 4a): did not significantly differ from normoxic controls
  inhibition of iC3b deposition on hypoxic/reoxygenated HUVECs (in words): significantly attenuated

## NCCc1c[nH]cn1 [histamine]
[4]
  change in extracellular acidification rate (EAR): all cells remained responsive

## MBL: mannan-(or mannose) binding lectin purified from human plasma
[4]
  change in extracellular acidification rate (EAR): did not evoke receptor-mediated changes in the EAR
